From ChEMBL document CHEMBL4402571, “Methylation of Daptomycin Leading to the Discovery of Kynomycin, a Cyclic Lipodepsipeptide Active against Resistant Pathogens” (J Med Chem, 2020)
Converted amounts (≈) assume the structure as drawn. The source made the active and inactive calls. No cut-off for these calls is given here.

Columns and labels:
Erythrocyte = test: Hemolytic activity against rat RBC at 320 ug/ml measured after 1 hr; type: ADME, cell-based
HEK293 [1] = test: Cytotoxicity against HEK293 cells assessed as reduction in cell viability at 80 mg/ml measured after 24 hrs by MTT assay; type: cell-based; conditions: human, hek293, 24 h
HEK293 [2] = test: Cytotoxicity against HEK293 cells assessed as reduction in cell viability at 40 mg/ml measured after 24 hrs by MTT assay; type: cell-based; conditions: human, hek293, 24 h
[3] = Aqueous solubility of the compound in 0.9% NaCl at >= 100 measured after 15 mins; type: physicochemical; conditions: buffer, 0.25 h
Enterococcus faecalis [4] = test: Bactericidal activity against Enterococcus faecalis ATCC 29212 assessed as reduction in bacterial load at 16 ug/ml preincubated for up to 24 hrs followed by subculturing on LB agar plate by time-kill assay; type: functional, organism-based
Enterococcus faecalis [5] = test: Antibacterial activity against Enterococcus faecalis T1027 infected in Galleria mellonella larvae assessed as increase in larvae survival at 50 mg/kg measured 96 hrs post-infection; type: functional, organism-based
Staphylococcus aureus [6] = test: Antibacterial activity against Staphylococcus aureus USA300 infected in Balb/c mouse model of sepsis assessed as bacterial eradication in kidney at 1.25 mg/kg, sc administered twice daily for 3 days starting from 1 hr post-infection followed by subculturing on LB agar plate and measured after overnight incubation; type: functional, organism-based
Staphylococcus aureus [7] = test: Bactericidal activity against Staphylococcus aureus ATCC 29213 assessed as reduction in bacterial load at 4 to 8 ug/ml preincubated for up to 24 hrs followed by subculturing on LB agar plate by time-kill assay; type: functional, organism-based
Enterococcus faecalis [8] = test: Induction of cell membrane integrity disruption in Enterococcus faecalis ATCC 29212 at 16 ug/ml measured after 1 hr by SYTOX green staining based confocal laser scanning microscopic analysis; type: organism-based
Staphylococcus aureus [9] = test: Antibacterial activity against daptomycin-resistant Staphylococcus aureus SA11 infected in NIH mouse model of neutropenic thigh infection assessed reduction in bacterial level in thigh at 50 mg/kg, sc administered at 2 and 12 hrs post infection and measured at 48 to 60 hrs post-infection; type: functional, organism-based
Enterococcus faecalis [10] = test: Antibacterial activity against Enterococcus faecalis ZS129 infected in Galleria mellonella larvae assessed as increase in larvae survival at 50 mg/kg measured up to 72 hrs post-infection; type: functional, organism-based
Enterococcus faecalis [11] = test: Antibacterial activity against daptomycin-resistant Enterococcus faecalis T1027 infected in NIH mouse model of neutropenic thigh infection assessed reduction in bacterial level in thigh at 50 mg/kg, sc administered at 2 and 12 hrs post infection and measured at 48 to 60 hrs post-infection; type: functional, organism-based
Enterococcus faecalis [12] = test: Induction of cell membrane integrity disruption in Enterococcus faecalis ATCC 29212 at 16 ug/ml measured after 0.5 to 2 hrs by SYTOX green staining based fluorescence assay; type: organism-based
Enterococcus faecalis [13] = test: Antibacterial activity against Enterococcus faecalis ATCC 29212 at sub-MIC after 7 serial passages by broth microdilution method; type: functional, organism-based
Staphylococcus aureus [14] = test: Antibacterial activity against methicillin-resistant Staphylococcus aureus ATCC 43300 infected in Galleria mellonella larvae assessed as increase in larvae survival at 50 mg/kg measured up to 72 hrs post-infection; type: functional, organism-based
Staphylococcus aureus [15] = test: Induction of cell membrane integrity disruption in Staphylococcus aureus ATCC 29213 at 8 ug/ml measured after 0.5 to 2 hrs by SYTOX green staining based fluorescence assay; type: organism-based
Staphylococcus aureus [16] = test: Antibacterial activity against daptomycin-resistant Staphylococcus aureus SA11 infected in Galleria mellonella larvae assessed as increase in larvae survival at 50 mg/kg measured up to 72 hrs post-infection; type: functional, organism-based
Enterococcus faecalis [17] = test: Antibacterial activity against Streptococcus faecalis by broth microdilution method; type: functional
Staphylococcus aureus [18] = test: Antibacterial activity against methicillin-resistant Staphylococcus aureus SA14 by broth microdilution method; type: functional
Enterococcus faecium [19] = test: Antibacterial activity against Enterococcus faecium ET6 by broth microdilution method; type: functional
Enterococcus faecalis [20] = test: Antibacterial activity against Enterococcus faecalis ATCC 29212 by broth microdilution method; type: functional
Staphylococcus aureus [21] = test: Antibacterial activity against methicillin-resistant Staphylococcus aureus SA88 by broth microdilution method; type: functional
Enterococcus faecium [22] = test: Antibacterial activity against Enterococcus faecium ET60 by broth microdilution method; type: functional
Staphylococcus aureus [23] = test: Antibacterial activity against Staphylococcus aureus ATCC 29213 by broth microdilution method; type: functional
Staphylococcus aureus [24] = test: Antibacterial activity against methicillin-resistant Staphylococcus aureus SA86 by broth microdilution method; type: functional
Staphylococcus aureus [25] = test: Antibacterial activity against methicillin-resistant Staphylococcus aureus SA11 by broth microdilution method; type: functional
Enterococcus faecalis [26] = test: Bactericidal activity against Enterococcus faecalis ATCC 29212 assessed as reduction in bacterial load at 4 to 16 ug/ml preincubated for up to 24 hrs followed by subculturing on LB agar plate by time-kill assay; type: functional, organism-based
Staphylococcus aureus [27] = test: Antibacterial activity against Staphylococcus aureus ATCC 29213 at sub-MIC after 7 serial passages by broth microdilution method; type: functional, organism-based
Enterococcus faecalis [28] = test: Induction of cell membrane integrity disruption in Enterococcus faecalis ATCC 29212 at 8 to 32 ug/ml measured after 0.5 to 2 hrs by SYTOX green staining based fluorescence assay; type: organism-based
Staphylococcus aureus [29] = test: Bactericidal activity against Staphylococcus aureus ATCC 29213 assessed as reduction in bacterial load at 16 ug/ml preincubated for 24 hrs followed by subculturing on LB agar plate by time-kill assay; type: functional, organism-based

CCCCCCCCCC(=O)N[C@@H](Cc1c[nH]c2ccccc12)C(=O)N[C@H](CC(N)=O)C(=O)N[C@@H](CC(=O)O)C(=O)N[C@@H]1C(=O)NCC(=O)N[C@@H](CCCN)C(=O)N[C@@H](CC(=O)O)C(=O)N[C@H](C)C(=O)N[C@@H](CC(=O)O)C(=O)NCC(=O)N[C@H](CO)C(=O)N[C@@H]([C@H](C)CC(=O)O)C(=O)N[C@@H](CC(=O)c2ccccc2NC)C(=O)O[C@@H]1C
Activity (Erythrocyte): Non-Toxic
Activity (HEK293 [1]): Toxic
Activity (HEK293 [2]): Non-Toxic
solubility [3]: Soluble

CCCCCCCCCC(=O)N[C@@H](Cc1c[nH]c2ccccc12)C(=O)N[C@@H](CC(N)=O)C(=O)N[C@@H](CC(=O)O)C(=O)N[C@@H]1C(=O)NCC(=O)N[C@@H](CCCN)C(=O)N[C@H](CC(=O)O)C(=O)N[C@H](C)C(=O)N[C@@H](CC(=O)O)C(=O)NCC(=O)N[C@H](CO)C(=O)N[C@@H]([C@@H](C)CC(=O)O)C(=O)N[C@@H](CC(=O)c2ccccc2N)C(=O)O[C@@H]1C
Activity (Enterococcus faecalis [4]): Active
Activity (Enterococcus faecalis [5]): Active
Activity (Staphylococcus aureus [6]): inactive
Activity (Staphylococcus aureus [7]): Active
Activity (Enterococcus faecalis [8]): Active
Activity (Staphylococcus aureus [9]): Active
Activity (Enterococcus faecalis [10]): Active
Activity (Enterococcus faecalis [11]): Active
Activity (Enterococcus faecalis [12]): Active
Activity (Enterococcus faecalis [13]): inactive
Activity (Staphylococcus aureus [14]): Active
Activity (Staphylococcus aureus [15]): Active
Activity (Staphylococcus aureus [16]): Active

CCCCCCCCCC(=O)N[C@@H](Cc1c[nH]c2ccccc12)C(=O)N[C@@H](CC(N)=O)C(=O)N[C@@H](CC(=O)O)C(=O)N[C@@H]1C(=O)N(C)CC(=O)N[C@@H](CCCN)C(=O)N[C@@H](CC(=O)O)C(=O)N[C@H](C)C(=O)N[C@@H](CC(=O)O)C(=O)NCC(=O)N[C@H](CO)C(=O)N[C@@H]([C@H](C)CC(=O)O)C(=O)N[C@@H](CC(=O)c2ccccc2N)C(=O)O[C@@H]1C
MIC (Enterococcus faecalis [17]): 2 µg/mL (≈ 1.22 µM)
MIC (Staphylococcus aureus [18]): 0.25 µg/mL (≈ 0.153 µM)
MIC (Enterococcus faecium [19]): 8 µg/mL (≈ 4.89 µM)
MIC (Enterococcus faecalis [20]): 8 µg/mL (≈ 4.89 µM)
MIC (Staphylococcus aureus [21]): 0.5 µg/mL (≈ 0.306 µM)
MIC (Enterococcus faecium [22]): 4 µg/mL (≈ 2.45 µM)
MIC (Staphylococcus aureus [23]): 0.5 µg/mL (≈ 0.306 µM)
MIC (Staphylococcus aureus [24]): 0.5 µg/mL (≈ 0.306 µM)
MIC (Staphylococcus aureus [25]): 0.5 µg/mL (≈ 0.306 µM)

CCCCCCCCCC(=O)N[C@@H](Cc1c[nH]c2ccccc12)C(=O)N[C@@H](CC(N)=O)C(=O)N[C@@H](CC(=O)O)C(=O)N[C@@H]1C(=O)NCC(=O)N[C@@H](CCCN)C(=O)N[C@@H](CC(=O)O)C(=O)N[C@H](C)C(=O)N[C@@H](CC(=O)O)C(=O)NCC(=O)N[C@H](CO)C(=O)N[C@@H]([C@H](C)CC(=O)O)C(=O)N[C@@H](CC(=O)c2ccccc2NC)C(=O)O[C@@H]1C
Activity (Enterococcus faecalis [26]): Active
Activity (Staphylococcus aureus [6]): Active
Activity (Staphylococcus aureus [7]): Active
Activity (Staphylococcus aureus [27]): Active
Activity (Enterococcus faecalis [8]): Active
Activity (Staphylococcus aureus [9]): Active
Activity (Enterococcus faecalis [11]): Active
Activity (Enterococcus faecalis [13]): inactive
Activity (Staphylococcus aureus [14]): Active
Activity (Enterococcus faecalis [28]): Active
Activity (Staphylococcus aureus [15]): Active
Activity (Staphylococcus aureus [16]): Active
Activity (Staphylococcus aureus [29]): Active
